IC50 and Peff data for two compounds are collected here from publication PMC12073438, “Stereoselectivity of In Vivo Processes and Bioactivity of Farrerol Enantiomers” (Molecules, 2025).

Data set [1] has as its target CYP2C9 (Homo sapiens, UniProt P11712). Description: CYP inhibition in liver microsomes (diclofenac). The note with it: IC50, CYP 2C9, marker substrate diclofenac. As to the method: A liver microsome working solution (20 mg/mL) contained potassium phosphate buffer (0.1 M, pH 7.4), hepatic microsomes and marker substrate solution, which phenacetin, diclofenic acid, S-mephenytoinwer, dextromethorphan, midazolam, coumarin and chlorzoxazone used as substrates for […], CYP2C9, CYP2C19, CYP2D6, CYP3A4/5, CYP2A6 and CYP2E1, respectively. In brief, 238.5 µL of liver microsome working solution was placed in a 1 mL EP tube. […] The reaction was started by injecting NADPH (1 mM), and the resulting mixture was incubated at 37 °C for 10 min. […] Each incubation was conducted in triplicate (n = 3).
An API 4000 LC/tandem mass spectrometry was used to analyze the concentration of metabolites of various chemical agents using a validated mode. An Atlantis T3 column (2.1 mm × 50 mm, 5 μm) was utilized, employing mobile phases consisting of a 0.1% formic acid solution (A) and a 0.1% acetonitrile formate solution (B). […] ESI was conducted in positive ion mode.

For data set [2], the target named is CYP2C19 (Homo sapiens, UniProt P33261). As to the kind of experiment: CYP inhibition in liver microsomes (S-mephenytoin). The note with it: CYP 2C19, marker substrate S-mephenytoin. In kind it is in vitro ADME. As to the method:
(§1) A liver microsome working solution (20 mg/mL) contained potassium phosphate buffer (0.1 M, pH 7.4), hepatic microsomes and marker substrate solution, which phenacetin, diclofenic acid, S-mephenytoinwer, dextromethorphan, midazolam, coumarin and chlorzoxazone used as substrates for […], CYP2C9, CYP2C19, CYP2D6, CYP3A4/5, CYP2A6 and CYP2E1, respectively. In brief, 238.5 µL of liver microsome working solution was placed in a 1 mL EP tube. […] The reaction was started by injecting NADPH (1 mM), and the resulting mixture was incubated at 37 °C for 10 min. After centrifuging at 4000 rpm for 15 min, the supernatant was transferred and analyzed using LC-MS/MS to detect the corresponding metabolites. Each incubation was conducted in triplicate (n = 3).
(§2) An API 4000 LC/tandem mass spectrometry was used to analyze the concentration of metabolites of various chemical agents using a validated mode. An Atlantis T3 column (2.1 mm × 50 mm, 5 μm) was utilized, employing mobile phases consisting of a 0.1% formic acid solution (A) and a 0.1% acetonitrile formate solution (B). […] MRM was utilized to quantify each metabolite, detecting the following transitions: m/z 152.1/110 for acetaminophen, 312.1/230.0 for 4′-Hydroxydiclofenac, 235.0/150.0 for 4′-hydroxymephentoin, 258.2/199.1 for Dextrorphan, 342.1/203.0 for 1′-hydroxymidazolam, 161.1/133.1 for hydroxycoumarin, and 184.0/120.0 for 6-hydroxyclozoxadone.

The target in data set [3] is T1, CYP1A2 (Homo sapiens, UniProt P05177).
T1 sequence (P05177 1-516): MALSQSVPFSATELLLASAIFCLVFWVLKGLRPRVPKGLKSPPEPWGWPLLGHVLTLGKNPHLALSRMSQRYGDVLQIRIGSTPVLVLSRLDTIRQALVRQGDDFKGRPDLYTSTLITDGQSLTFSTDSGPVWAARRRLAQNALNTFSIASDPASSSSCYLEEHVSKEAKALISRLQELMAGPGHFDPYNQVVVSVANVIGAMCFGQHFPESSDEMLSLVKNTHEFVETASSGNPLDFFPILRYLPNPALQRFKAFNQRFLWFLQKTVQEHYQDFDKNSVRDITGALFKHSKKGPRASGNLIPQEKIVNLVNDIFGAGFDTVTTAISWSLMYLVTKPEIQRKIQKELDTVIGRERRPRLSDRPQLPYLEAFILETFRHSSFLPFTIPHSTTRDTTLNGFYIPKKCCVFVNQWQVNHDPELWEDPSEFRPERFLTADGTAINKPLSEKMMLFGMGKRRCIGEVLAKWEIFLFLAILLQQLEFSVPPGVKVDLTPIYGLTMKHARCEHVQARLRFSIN
As to the kind of experiment: CYP inhibition in liver microsomes (phenacetin). To be noted: IC50, CYP 1A2, marker substrate phenacetin. As to the method: as §1
An API 4000 LC/tandem mass spectrometry was used to analyze the concentration of metabolites of various chemical agents using a validated mode. An Atlantis T3 column (2.1 mm × 50 mm, 5 μm) was utilized, employing mobile phases consisting of a 0.1% formic acid solution (A) and a 0.1% acetonitrile formate solution (B). […] As for the detection of CYP 2E1 metabolite, the Flow composition was as follows: 0–0.30 min, 10% B; 0.30–1.30 min, 10–55% B; 1.30–1.50 min, 55–95% B; 1.50–2.00 min, 95% B; 2.00–2.01 min, 95–10% B; the low rate was 0.85 mL/min. ESI was conducted in positive ion mode. MRM was utilized to quantify each metabolite, detecting the following transitions: m/z 152.1/110 for acetaminophen, 312.1/230.0 for 4′-Hydroxydiclofenac, 235.0/150.0 for 4′-hydroxymephentoin, 258.2/199.1 for Dextrorphan, 342.1/203.0 for 1′-hydroxymidazolam, 161.1/133.1 for hydroxycoumarin, and 184.0/120.0 for 6-hydroxyclozoxadone.

Data set [4] addresses CYP2E1 (Homo sapiens, UniProt P05181). Description: CYP inhibition in liver microsomes (chlorzoxazone). It counts as in vitro ADME. To be noted: CYP 2E1, marker substrate chlorzoxazone. As to the method: as §1, §2
On the technique in general: Microsomes from liver hold many membrane-bound enzymes, among them those of drug oxidation.

Data set [5] is described as follows: Rat single-pass intestinal perfusion. It counts as in vivo, Sprague–Dawley rats. As to the method: The absorption rate constant (Ka) and permeability coefficient (Peff) were calculated using the following equation: […] The single-pass intestinal perfusion studies in rats were conducted following previously established methodologies. […] Before the surgical procedure, animals were fasted overnight with water ad libitum. Rats were anesthetized via intraperitoneal administration of 20% urethane at a dosage of 6 mL/kg and subsequently positioned on a heating pad. Their normal body temperature (37.0 ± 0.5 °C) was sustained using an infrared lamp. A midline incision was made to open the abdomen, allowing for the exposure of 35–45 cm of the small intestine, along with a 10 cm segment […]. This segment was cannulated with Teflon tubing (0.42 cm in diameter) at both the proximal and distal ends, which were then secured with silk sutures. This segment was gently flushed with warmed normal saline to remove intestinal contents. Then, farrerol racemate maintained at 37 °C was perfused through the lumen of the small intestine at a flow rate of 0.2 mL/min. After a 30 min equilibration period to reach steady-state outlet concentrations, the perfusate samples were collected every 15 min for 120 min in micro-centrifuge tubes. The length of the small intestinal segment was measured following the last collection. All collected samples were stored at −20 °C. 500 μL of collected intestinal perfusion samples were placed in an EP tube and then dried with nitrogen at 37 °C. The residue was redissolved and precipitated with 200 μL of methanol by vortex-mixing for 5 min. Following centrifugation at 13,000 rpm for 10 min, the supernatant samples were analyzed using the previously validated RP-HPLC-DAD method. The chiral HPLC technique employed for the analysis of farreol enantiomers in intestinal perfusate aligned with the chromatographic procedure outlined in Section 3.4.3. This method underwent validation for parameters including linearity, range, extraction recovery, specificity, precision, and accuracy. […] The extraction recoveries of farrerol in intestinal perfusate at three different concentration levels ranged from 90.57% to 95.57%.

Setting [6] is: Colon, farrerol racemate 66.00 μg·mL^−1.
The mark [7] stands for this setting: Colon, farrerol racemate 132.00 μg·mL^−1.
Where [8] appears, read: Colon, farrerol racemate 132.00 μg·mL^−1 + verapamil.
The mark [9] stands for this setting: Colon, farrerol racemate 180.00 μg·mL^−1.
Where [10] appears, read: Duodenum, farrerol racemate 66.00 μg·mL^−1.
The mark [11] stands for this setting: Duodenum, farrerol racemate 132.00 μg·mL^−1.
Setting [12] is: Duodenum, farrerol racemate 132.00 μg·mL^−1 + verapamil.
[13] abbreviates: Duodenum, farrerol racemate 180.00 μg·mL^−1.
[14] abbreviates: Ileum, farrerol racemate 66.00 μg·mL^−1.
The mark [15] stands for this setting: Ileum, farrerol racemate 132.00 μg·mL^−1.
Setting [16] is: Ileum, farrerol racemate 132.00 μg·mL^−1 + verapamil.
Where [17] appears, read: Ileum, farrerol racemate 180.00 μg·mL^−1.
The mark [18] stands for this setting: Jejunum, farrerol racemate 66.00 μg·mL^−1.
The mark [19] stands for this setting: Jejunum, farrerol racemate 132.00 μg·mL^−1.
Where [20] appears, read: Jejunum, farrerol racemate 132.00 μg·mL^−1 + verapamil.
Setting [21] is: Jejunum, farrerol racemate 180.00 μg·mL^−1.

Chain of CYP2E1 (P05181 whole entry): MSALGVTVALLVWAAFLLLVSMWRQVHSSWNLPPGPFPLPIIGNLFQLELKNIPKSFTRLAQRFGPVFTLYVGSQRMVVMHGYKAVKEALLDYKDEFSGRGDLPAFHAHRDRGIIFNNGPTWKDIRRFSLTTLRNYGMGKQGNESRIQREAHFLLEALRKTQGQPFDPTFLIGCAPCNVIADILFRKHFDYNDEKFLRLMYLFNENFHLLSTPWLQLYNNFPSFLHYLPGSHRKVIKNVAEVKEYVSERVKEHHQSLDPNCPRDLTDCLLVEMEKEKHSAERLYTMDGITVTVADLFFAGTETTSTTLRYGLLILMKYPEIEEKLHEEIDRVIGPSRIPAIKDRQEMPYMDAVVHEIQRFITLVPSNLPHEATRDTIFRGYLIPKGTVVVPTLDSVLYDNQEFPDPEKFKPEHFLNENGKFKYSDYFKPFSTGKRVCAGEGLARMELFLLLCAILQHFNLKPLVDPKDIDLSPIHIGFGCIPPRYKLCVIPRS
Chain of CYP2C19 (P33261 whole entry): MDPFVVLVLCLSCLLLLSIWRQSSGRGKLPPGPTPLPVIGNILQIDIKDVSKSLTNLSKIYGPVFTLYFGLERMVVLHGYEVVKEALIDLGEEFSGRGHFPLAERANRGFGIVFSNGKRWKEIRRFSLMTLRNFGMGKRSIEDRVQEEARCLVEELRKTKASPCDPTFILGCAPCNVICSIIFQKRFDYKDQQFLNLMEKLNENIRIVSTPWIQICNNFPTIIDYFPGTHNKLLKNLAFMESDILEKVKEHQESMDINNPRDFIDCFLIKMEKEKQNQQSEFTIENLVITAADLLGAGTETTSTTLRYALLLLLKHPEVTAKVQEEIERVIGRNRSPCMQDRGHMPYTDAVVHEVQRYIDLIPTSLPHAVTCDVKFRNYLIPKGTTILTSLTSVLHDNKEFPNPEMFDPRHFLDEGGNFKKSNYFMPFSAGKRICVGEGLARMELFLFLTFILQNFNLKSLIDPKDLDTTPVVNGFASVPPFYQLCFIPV
Chain of CYP2C9 (P11712 whole entry): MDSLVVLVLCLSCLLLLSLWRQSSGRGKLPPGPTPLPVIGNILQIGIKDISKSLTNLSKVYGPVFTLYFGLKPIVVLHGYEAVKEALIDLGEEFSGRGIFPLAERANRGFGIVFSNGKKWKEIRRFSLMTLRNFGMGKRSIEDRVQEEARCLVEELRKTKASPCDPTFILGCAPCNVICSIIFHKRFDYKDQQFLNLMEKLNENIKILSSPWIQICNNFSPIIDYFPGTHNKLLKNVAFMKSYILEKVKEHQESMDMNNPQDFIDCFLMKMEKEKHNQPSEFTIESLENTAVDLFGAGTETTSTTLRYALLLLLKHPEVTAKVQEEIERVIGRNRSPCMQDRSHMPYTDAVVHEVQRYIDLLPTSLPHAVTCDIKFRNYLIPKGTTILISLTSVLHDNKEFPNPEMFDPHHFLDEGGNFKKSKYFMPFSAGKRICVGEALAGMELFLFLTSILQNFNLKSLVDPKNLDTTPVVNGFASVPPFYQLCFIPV

As a reminder, the IC50 is the midpoint of a concentration-inhibition curve. Read a low IC50 as greater potency. With `Cc1c(O)c(C)c2c(c1O)C(=O)CC(c1ccc(O)cc1)O2` (single isomer, unassigned; (-)) [(−)-farrerol, 2,3-dihydro-5,7-dihydroxy-2-(4-hydroxyphenyl)-6,8-dimethyl-4-benzopyrone], the IC50 is 1570 nM in data set [1], 2070 nM in data set [2], 1020 nM in data set [3] and above 50000 nM in data set [4]. For the same compound, the Peff was 1.12 ± 0.41 ×10^−1 cm·min^−1 in data set [5] (setting [6]); 0.95 ± 0.10 ×10^−1 cm·min^−1 in data set [5] (setting [7]); 1.42 ± 0.23 ×10^−1 cm·min^−1 in data set [5] (setting [8]); 1.12 ± 0.17 ×10^−1 cm·min^−1 in data set [5] (setting [9]); 1.33 ± 0.03 ×10^−1 cm·min^−1 in data set [5] (setting [10]); 1.17 ± 0.10 ×10^−1 cm·min^−1 in data set [5] (setting [11]). Besides, the Peff in data set [5] (setting [12]) is listed as 1.43 ± 0.17 ×10^−1 cm·min^−1; in data set [5] (setting [13]) it was 1.33 ± 0.11 ×10^−1 cm·min^−1; in data set [5] (setting [14]), 1.14 ± 0.22 ×10^−1 cm·min^−1; in data set [5] (setting [15]), 0.89 ± 0.10 ×10^−1 cm·min^−1; in data set [5] (setting [16]), 0.77 ± 0.11 ×10^−1 cm·min^−1; in data set [5] (setting [17]), 0.78 ± 0.07 ×10^−1 cm·min^−1. Further, the Peff in data set [5] (setting [18]) is reported as 1.17 ± 0.24 ×10^−1 cm·min^−1; in data set [5] (setting [19]), 0.74 ± 0.05 ×10^−1 cm·min^−1; in data set [5] (setting [20]), 1.12 ± 0.10 ×10^−1 cm·min^−1; in data set [5] (setting [21]), 1.07 ± 0.10 ×10^−1 cm·min^−1.
Regarding `Cc1c(O)c(C)c2c(c1O)C(=O)CC(c1ccc(O)cc1)O2` (single isomer, unassigned; (+)) [(+)-farrerol, 2,3-dihydro-5,7-dihydroxy-2-(4-hydroxyphenyl)-6,8-dimethyl-4-benzopyrone], the IC50 in data set [1] is 1970 nM; in data set [2], 1610 nM; in data set [3], 588 nM; in data set [4] it was above 50000 nM. The Peff in data set [5] (setting [6]) is given as 1.09 ± 0.37 ×10^−1 cm·min^−1; in data set [5] (setting [7]) it was 0.93 ± 0.09 ×10^−1 cm·min^−1; in data set [5] (setting [8]) it was 1.41 ± 0.23 ×10^−1 cm·min^−1; in data set [5] (setting [9]) it was 1.04 ± 0.12 ×10^−1 cm·min^−1; in data set [5] (setting [10]), 1.32 ± 0.03 ×10^−1 cm·min^−1; in data set [5] (setting [11]) it was 1.16 ± 0.11 ×10^−1 cm·min^−1. The Peff in data set [5] (setting [12]) is given as 1.42 ± 0.17 ×10^−1 cm·min^−1; in data set [5] (setting [13]) it was 1.30 ± 0.14 ×10^−1 cm·min^−1; in data set [5] (setting [14]), 1.12 ± 0.22 ×10^−1 cm·min^−1; in data set [5] (setting [15]), 0.87 ± 0.08 ×10^−1 cm·min^−1; in data set [5] (setting [16]), 0.77 ± 0.11 ×10^−1 cm·min^−1; in data set [5] (setting [17]) it was 0.79 ± 0.04 ×10^−1 cm·min^−1. The Peff in data set [5] (setting [18]) is given as 1.16 ± 0.23 ×10^−1 cm·min^−1; in data set [5] (setting [19]) it was 0.73 ± 0.03 ×10^−1 cm·min^−1; in data set [5] (setting [20]) it was 1.12 ± 0.10 ×10^−1 cm·min^−1; in data set [5] (setting [21]) it was 1.03 ± 0.06 ×10^−1 cm·min^−1.
